Earlier results on 1 compound are cited in patent publication US20250161331A1, “ANTI-INFLAMMATORY DRUG-CANNABINOID-COMPRISING NANOEMULSIONS AND METHODS OF USING THE SAME” (SGN Nanopharma Inc., priority 2022, published 2025).

Read-outs that look alike come from different tables or passages of the source.

On to `C=C(C)[C@@H]1CCC(C)=C[C@H]1c1c(O)cc(CCCCC)cc1O` [CBD, Cannabidiol], for which the CBD concentrations decreased entry runs as follows: (cannabis oil formulations, same timeframe (3-7 days)) “up to 38%”; (solution as a tea, room temperature, 3-7 days) no more than 50%.
